Measurements: PMC9481026 (PLoS ONE, 2022)
Converted amounts (≈) assume the structure as drawn. Read-outs that look alike come from different tables or passages of the source.

How the values were obtained:
RVFV MP-12 = experiment: microbe, parasite or virus in culture; assay type: cell-based, Rift Valley fever virus; details: read-out: Estimated EC50
RVFV strain MP-12 [1] = experiment: microbe, parasite or virus in culture; assay type: cell-based, Rift Valley fever virus
Human RNase H1 = molecular target: T1, Human RNase H1 (Homo sapiens, UniProt O60930); experiment: biochemical
T1 construct: made in house; host or cells: E. coli
T1 sequence (O60930 1-286): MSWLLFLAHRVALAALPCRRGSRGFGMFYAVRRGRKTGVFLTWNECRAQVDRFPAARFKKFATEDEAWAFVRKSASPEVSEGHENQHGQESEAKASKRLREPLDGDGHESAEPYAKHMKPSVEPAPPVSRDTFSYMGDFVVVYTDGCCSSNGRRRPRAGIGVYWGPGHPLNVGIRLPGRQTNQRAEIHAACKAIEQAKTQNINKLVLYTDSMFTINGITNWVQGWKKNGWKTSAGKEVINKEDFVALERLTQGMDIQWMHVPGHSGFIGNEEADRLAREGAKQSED

C. neoformans = experiment: microbe, parasite or virus in culture; assay type: cell-based; details: for MIC80: Cryptococcus neoformans, read-out: C. neoformans (MIC80, μM)
Staphylo-coccus spp. = experiment: organism not typed; assay type: cell-based
RVFV strain MP-12 [2] = experiment: microbe, parasite or virus in culture; assay type: cell-based, Rift Valley fever virus; details: read-out: A549 EC50
LACV = experiment: microbe, parasite or virus in culture; assay type: cell-based, La Crosse virus; details: read-out: LACV EC50
ZIKV = experiment: microbe, parasite or virus in culture; assay type: cell-based, Zika virus; details: read-out: ZIKV EC50
in vitro = details: African green monkey
[3] = read-out: Human RNase H1 (IC50)
[4] = Rift Valley fever virus, Vero, 24 h
[5] = Rift Valley fever virus, Vero, read-out: Vero EC50
[6] = Rift Valley fever virus, A549, 24 h
[7] = La Crosse virus, Vero C1008, 24 h

## Cc1cc(O)c(=O)c(O)cc1C(=O)NCc1ccc(N2CCCC2)cc1 [Compound 1019]
RVFV MP-12
  EC50: 19 µM
Vero cells
  CC50: > 120 µM

## Cc1cc(O)c(=O)c(O)cc1C(=O)C1CCCCC1 [Compound 120]
RVFV strain MP-12 [1]; read-out: RVFV (EC50)
  EC50: 15.6 µM
Human RNase H1; [3]
  IC50: 81 µM
C. neoformans
  C. neoformans (MIC80, μM): 12 µM
Vero cells
  CC50: > 120 µM

## CCOC(=O)c1sc(NC(=O)CSc2nnc(Cc3ccccc3)o2)c(C#N)c1C [Compound 6]
RVFV MP-12
  EC50: > 120 µM

## O=c1c(O)c(SCc2ccccc2)ccc(SCc2ccccc2)c1O [Compound 703]
RVFV strain MP-12 [1]; read-out: EC50
  EC50: 16.1 µM
RVFV MP-12
  EC50: 9 µM
Human RNase H1; [3]
  IC50: 61 µM
Staphylo-coccus spp.
  Staphylo-coccus spp. (MIC80, μM): 13 µM
C. neoformans
  C. neoformans (MIC80, μM): 7.0 µM
HepDES19
  CC50: 8.2 µM

## Cc1cc(O)c(=O)c(O)cc1-c1ccccc1 [Compound 113]
RVFV strain MP-12 [1]; read-out: RVFV (EC50)
  EC50: 10.3 µM
Human RNase H1; [3]
  IC50: 174 µM
C. neoformans
  C. neoformans (MIC80, μM): 24 µM
Vero cells
  CC50: > 120 µM

## Cc1cc(O)c(=O)c(O)cc1C(=O)N1CCN(C(=O)C2COc3ccccc3O2)CC1 (centres unmarked) [Compound 876]
Vero cells
  CC50: > 120 µM

## CCCCNC(=O)c1cc(O)c(=O)c(O)cc1C [Compound 1039]
RVFV strain MP-12 [1]; [4]
  EC50: 8.9 µM
RVFV strain MP-12 [1]; [5]
  EC50: 8.9 µM
RVFV MP-12; Rift Valley fever virus, Vero
  EC50: 6 µM
RVFV strain MP-12 [2]; [6]
  EC50: 15.5 µM
LACV; [7]
  EC50: > 120 µM
ZIKV; Zika virus, Vero C1008, 48 h
  EC50: > 120 µM
Human RNase H1
  IC50: 209 µM
C. neoformans
  MIC80: 12 µM (≈ 3.02 µg/mL)
Vero cells; African green monkey
  CC50: > 120 µM
In vitro; Vero CC50
  CC50: > 120 µM

## O=c1c(O)c(-c2ccc(O)c(O)c2)oc2cc(O)c(O)c(O)c12 [Compound 7, Quercetagetin]
RVFV MP-12; Rift Valley fever virus, Vero
  EC50: > 120 µM

## O=C1C=CC(=O)c2ccccc21 [Compound 327]
RVFV strain MP-12 [1]; read-out: EC50
  EC50: 39.7 µM
RVFV strain MP-12 [1]; read-out: Vero EC50
  EC50: 39.7 µM
RVFV MP-12
  EC50: 2 µM
RVFV strain MP-12 [2]
  EC50: 19.6 µM
LACV
  EC50: 12.7 µM
ZIKV
  EC50: > 120 µM
Human RNase H1; [3]
  IC50: 47 µM
C. neoformans
  C. neoformans (MIC80, μM): 9.1 µM
A549 cells
  CC50: 27.5 µM
HepDES19
  CC50: 18.5 µM

## COC(=O)c1c(C)cc(O)c(=O)c(O)c1Br [Compound 335]
RVFV strain MP-12 [1]; read-out: EC50
  EC50: 40.8 µM
RVFV strain MP-12 [1]; read-out: RVFV (EC50)
  EC50: 40.8 µM
RVFV strain MP-12 [1]; read-out: Vero EC50
  EC50: 40.8 µM
RVFV MP-12
  EC50: 3 µM
RVFV strain MP-12 [2]
  EC50: > 120 µM
LACV
  EC50: > 120 µM
ZIKV
  EC50: > 120 µM
Human RNase H1; [3]
  IC50: 111 µM
C. neoformans
  C. neoformans (MIC80, μM): 50 µM
Vero cells
  CC50: > 120 µM
A549 cells
  CC50: 96.2 µM

## Cc1ccc(O)c(=O)c(O)c1 [Compound 210]
RVFV strain MP-12 [1]; read-out: EC50
  EC50: 11.8 µM
RVFV MP-12
  EC50: 8 µM
Human RNase H1; [3]
  IC50: 85 µM
C. neoformans
  C. neoformans (MIC80, μM): 15 µM
Vero cells
  CC50: > 120 µM

## COc1ccc(/C=C/C(=O)c2ccccc(=O)c2O)cc1 [Compound 342]
RVFV strain MP-12 [1]; read-out: EC50
  EC50: 55.5 µM
RVFV MP-12
  EC50: 2 µM
Human RNase H1; [3]
  IC50: > 500 µM
C. neoformans
  C. neoformans (MIC80, μM): 24 µM
Vero cells
  CC50: > 120 µM
HepDES19
  CC50: 30.4 µM

## C/C(=N\c1ccc(Cl)c(Cl)c1)c1c(C)cc(O)n(O)c1=O [Compound 670]
RVFV strain MP-12 [1]; [4]
  EC50: 14 µM
RVFV strain MP-12 [1]; [5]
  EC50: 14 µM
RVFV MP-12; Rift Valley fever virus, Vero
  EC50: 10 µM
RVFV strain MP-12 [2]; [6]
  EC50: 15.3 µM
LACV; [7]
  EC50: > 120 µM
ZIKV; Zika virus, Vero C1008, 48 h
  EC50: > 120 µM
Human RNase H1
  IC50: 356 µM
C. neoformans
  MIC80: 69 µM (≈ 22.6 µg/mL)
Vero cells; African green monkey
  CC50: > 120 µM
In vitro; CC50
  CC50: > 120 µM

## CC(C)c1ccc(O)c(=O)cc1 [Compound 48, γ -thujaplicin, reference compound]
RVFV MP-12; Rift Valley fever virus, Vero
  EC50: > 120 µM

## Cc1cc(O)c(=O)c(O)cc1C(=O)c1ccccc1 [Compound 111]
RVFV strain MP-12 [1]; read-out: RVFV (EC50)
  EC50: 19 µM
Human RNase H1; [3]
  IC50: 48 µM
C. neoformans
  C. neoformans (MIC80, μM): 36 µM
Vero cells
  CC50: > 120 µM

## Cc1ccc(Sc2cccc(O)c(=O)c2O)cc1 [Compound 838]
RVFV strain MP-12 [1]; read-out: EC50
  EC50: 12.7 µM
RVFV MP-12
  EC50: 8 µM
Human RNase H1; [3]
  IC50: 100 µM
C. neoformans
  C. neoformans (MIC80, μM): 1.0 µM
HepDES19
  CC50: 18.6 µM

## COc1ccc(Cl)cc1C(=O)Sc1cccccc1=O [Compound 681]
RVFV MP-12
  EC50: > 2 µM
Vero cells
  CC50: 2 µM

## NC(=O)c1c(N)sc2c1CCCCC2 [Compound 22]
RVFV MP-12
  EC50: > 120 µM

## Cc1cc(O)c(=O)c(O)cc1C(=O)Nc1ccc(F)cc1F [Compound 711]
RVFV MP-12
  EC50: 17 µM
Vero cells
  CC50: > 120 µM

## Cc1cc(O)c(=O)c(O)cc1C(=O)Nc1cccc(OCc2ccccc2)c1 [Compound 836]
RVFV MP-12
  EC50: 13 µM
Vero cells
  CC50: > 120 µM

## CC1=CC(O)N(O)C(O)=C1C(C)=Nc1ccccc1N (centres unmarked) [Compound 208]
RVFV strain MP-12 [1]; read-out: RVFV (EC50)
  EC50: > 120 µM
RVFV MP-12
  EC50: 14 µM
Human RNase H1; [3]
  IC50: 194 µM
C. neoformans
  C. neoformans (MIC80, μM): 30 µM
Vero cells
  CC50: > 120 µM
HepDES19
  CC50: 14.4 µM

## O=C(O)CC(=O)CC(=O)c1cccs1 [Compound 129]
RVFV MP-12
  EC50: > 120 µM
